In patent US11667631B2, “FGFR4 inhibitor, preparation method therefor, and applications thereof” (Jiangsu Hansoh Pharmaceutical Group Co., Ltd., priority 2016, dated 2023):
Where two headings read alike, the source gives them in different places.

Tests used:
[1] = Pharmacokinetic (PK) analysis in rats; type: in vivo, Sprague Dawley (SD) rats; conditions: SD rats, single intragastric administration, 5 mg/kg; for Peak Time tmax: (sampling in hours); for AUC(0-t) / AUC(0-inf) / half-life / MRT / Cmax: Sprague-Dawley, rat, plasma, po; for AUC(0-t): read-out: Area Under Curve AUC0-t; for AUC(0-inf): read-out: Area Under Curve AUC0-∞; for half-life: read-out: Half-Time t1/2 (converted); for MRT: read-out: Mean Residence Time MRT; for Cmax: read-out: Plasma Concentration Cmax
In short: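 Intravenous blood (0.2 ml) was collected into K2EDTA and centrifuged to obtain plasma. Plasma (40 μL) was protein-precipitated with 160 μL acetonitrile. Compound levels were measured by LC/MS/MS on a C18 column using 0.1% formic acid in water and acetonitrile at 0.8 mL/min.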

Hep 3B cells = test: Inhibition of Hep 3B cell proliferation (CellTiter-Glo); type: cell-based; conditions: Homo sapiens, Hep3B; Hep 3B cell proliferation, 72 hours, CellTiter-Glo; read-out: Hep 3B IC50
HuH-7 cells = test: Inhibition of HuH-7 cell proliferation (CellTiter-Glo); type: cell-based; conditions: Homo sapiens; HuH-7 cell proliferation, 72 hours, CellTiter-Glo; read-out: HuH-7 IC50
In short: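 HuH-7 cells plated and left 16–24 h, then exposed to serially diluted compound for 72 h at 37 °C, 5% CO2. Viability read by CellTiter-Glo luminescence. IC50 obtained by curve fitting of inhibition rates.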

FGFR4 kinase = FGFR4 kinase (Homo sapiens (Human), UniProt P22455); test: Enzymologic experiment of FGFR4 (TR-FRET); type: biochemical; conditions: FGFR4 kinase activity
Sequence of FGFR4 kinase (P22455 22-802): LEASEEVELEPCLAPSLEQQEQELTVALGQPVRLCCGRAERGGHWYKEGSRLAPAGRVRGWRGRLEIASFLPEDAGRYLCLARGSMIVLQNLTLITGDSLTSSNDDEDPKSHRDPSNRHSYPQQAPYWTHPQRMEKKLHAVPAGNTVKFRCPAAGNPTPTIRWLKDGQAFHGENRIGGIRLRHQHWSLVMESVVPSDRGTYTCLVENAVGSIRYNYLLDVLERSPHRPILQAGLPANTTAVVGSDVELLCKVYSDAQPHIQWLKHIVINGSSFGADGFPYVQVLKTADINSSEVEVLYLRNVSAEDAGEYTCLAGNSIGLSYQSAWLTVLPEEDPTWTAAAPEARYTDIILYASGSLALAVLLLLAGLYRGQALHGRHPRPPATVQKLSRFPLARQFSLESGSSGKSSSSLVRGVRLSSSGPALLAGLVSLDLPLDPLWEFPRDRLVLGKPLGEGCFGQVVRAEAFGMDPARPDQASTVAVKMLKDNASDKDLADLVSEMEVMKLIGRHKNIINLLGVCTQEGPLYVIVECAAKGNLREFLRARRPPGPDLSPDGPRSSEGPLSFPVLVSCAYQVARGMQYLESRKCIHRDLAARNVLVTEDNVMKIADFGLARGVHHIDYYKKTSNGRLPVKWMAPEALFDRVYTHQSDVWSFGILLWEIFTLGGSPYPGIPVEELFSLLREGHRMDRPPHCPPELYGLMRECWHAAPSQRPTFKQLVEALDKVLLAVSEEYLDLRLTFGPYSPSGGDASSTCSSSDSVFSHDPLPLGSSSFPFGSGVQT
Experimental: In this experiment, the inhibitory effect of the compounds on FGFR4 kinase activity was tested by a fluorescence resonance energy transfer (TR-FRET) method, and the half maximal inhibitory concentration (IC50) of the compounds on the FGFR4 kinase activity was determined.
2) 1˜5 μL of diluted solution in gradient of the compound was added.
3) 1˜5 μL of a substrate mixture containing substrate polypeptide with a final concentration of 5˜50 nM and ATP with a final concentration of 10˜200 μM was added.
4) The mixture was incubated for 0.5˜3 hours at room temperature.
5) 10 μL of EDTA and a test solution comprising labeled antibody were added, and the plate was incubated for 1 hour at room temperature.
7) The inhibition rates were calculated according to the fluorescence signal values.

FGFR1 kinase = FGFR1 kinase (Homo sapiens (Human), UniProt P11362); test: Enzymologic experiment of FGFR1 (TR-FRET); type: biochemical; conditions: FGFR1 kinase activity
Sequence of FGFR1 kinase (P11362 22-822): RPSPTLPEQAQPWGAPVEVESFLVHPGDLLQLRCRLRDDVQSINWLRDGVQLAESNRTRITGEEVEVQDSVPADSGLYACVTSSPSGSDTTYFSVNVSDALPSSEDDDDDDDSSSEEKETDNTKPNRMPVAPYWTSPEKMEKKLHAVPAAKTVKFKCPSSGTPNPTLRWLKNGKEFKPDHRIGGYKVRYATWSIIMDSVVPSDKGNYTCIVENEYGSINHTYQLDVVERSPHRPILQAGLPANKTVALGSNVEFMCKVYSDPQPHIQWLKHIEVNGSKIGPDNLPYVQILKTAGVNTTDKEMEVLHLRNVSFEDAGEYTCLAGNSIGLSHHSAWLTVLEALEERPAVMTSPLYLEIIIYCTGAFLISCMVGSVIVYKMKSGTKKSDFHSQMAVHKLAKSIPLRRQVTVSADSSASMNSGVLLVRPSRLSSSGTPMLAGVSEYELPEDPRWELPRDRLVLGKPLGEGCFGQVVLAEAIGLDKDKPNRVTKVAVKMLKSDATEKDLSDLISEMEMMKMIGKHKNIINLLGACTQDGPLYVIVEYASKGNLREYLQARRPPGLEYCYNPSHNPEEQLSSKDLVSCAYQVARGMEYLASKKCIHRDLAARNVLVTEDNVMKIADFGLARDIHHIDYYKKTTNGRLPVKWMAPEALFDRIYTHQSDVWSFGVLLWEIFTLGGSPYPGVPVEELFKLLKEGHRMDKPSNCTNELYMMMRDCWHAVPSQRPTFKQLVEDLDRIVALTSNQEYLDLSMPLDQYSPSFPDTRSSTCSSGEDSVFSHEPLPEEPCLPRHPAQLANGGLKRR
In short: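 FGFR1 at 0.1˜5 nM final with substrate peptide 5˜50 nM and ATP 10˜200 μM final, 0.5˜3 h at room temperature. Stopped with EDTA plus labeled antibody for 1 h; TR-FRET signal read at 665 nm, IC50 fitted from inhibition rates.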

SK-HEP-1 cells = test: Inhibition of SK-HEP-1 cell proliferation (CellTiter-Glo); type: cell-based; conditions: Homo sapiens, SK-HEP1; SK-HEP-1 cell proliferation, 72 hours, CellTiter-Glo; read-out: SK-HEP-1 IC50
In short: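 Cells seeded and allowed to attach 16–24 h, then exposed to serially diluted compound for 72 h at 37 °C, 5% CO2. Viability read by CellTiter-Glo luminescence; IC50 fitted from inhibition rates across concentrations.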

Hep 3B cell line tumor = test: Pharmacodynamics test in vivo, Hep 3B tumor-bearing nude mice; conditions: Mus musculus, Hep3B, oral 30 mg/kg, 2 times/day, read-out: Tumor inhibition rate
Experimental: a, A Hep 3B cell line was taken from the cell bank, and the cells were resuscitated with the MEM culture medium (MEM+10% FBS+1% Glu+1% SP). The cells were placed in the cell culture bottle after resuscitation (cell type, date, and the name of the culturing person were marked on the bottle wall) and were incubated in a CO2 Incubator (the incubator temperature was 37° C., and the CO2 concentration was 5%).
b, The cells were passaged after 80-90% of the bottom of the culture bottle was covered by the cells. After passage, the cells were further incubated in the CO2 incubator. The process was repeated until the number of cells met the pharmacodynamic requirements in vivo.
c, The cultured cells were collected and counted by automatic cell counter. According to the counting results, the cells were resuspended with PBS to prepare a cell suspension (density: 7×10^7/mL), which was placed in the ice box for use.
a, Nude mouse was marked with a disposable universal ear tag for mouse and rat before inoculation, and the skin of the inoculated site was disinfected with 75% medical alcohol.
b, At the time of inoculation, the cell suspension was mixed well, 0.1˜1 mL of cell suspension was taken with a 1 mL syringe, after removing air bubbles, and the syringe was placed on an ice bag for use.
c, The nude mice were inoculated successively (the inoculated site was located on the right shoulder of the right back of the nude mice, and inoculated subcutaneously with 0.1 mL of cell suspension).
a, Tumor was measured on Day 14 to Day 16 after inoculation depending on the tumor growth, and tumor size was calculated.
Tumor volume calculation: tumor volume (mm^3)=length (mm)×width (mm)×width (mm)/2
b, According to the size of the tumor, the mice were grouped by random grouping.
c, According to the results of the grouping, the test drug was administered (administration method: oral administration, administration dose: 30 mg/kg, administration volume: 10 mL/kg, administration frequency: 2 times/day, […], vehicle: 0.5% CMC/1% Tween 80).
d, The tumor was measured and weighed twice a week after the test drug was administrated.
e, Animals were euthanized at the end of the test.

SMILES | Peak Time tmax [1] [h] | AUC(0-t) [1] [ng·h/mL] | AUC(0-inf) [1] [ng·h/mL] | half-life [1] [h] | MRT [1] [h] | Cmax [1] [ng/mL] | IC50 (Hep 3B cells) [nM] | IC50 (HuH-7 cells) [nM] | IC50 (FGFR4 kinase) [nM] | IC50 (FGFR1 kinase) [nM] | IC50 (SK-HEP-1 cells) [nM] | inhibition in vivo at 30 mg/kg (Hep 3B cell line tumor; 240 h, 10 days of administration) [%] | inhibition in vivo at 30 mg/kg (Hep 3B cell line tumor; 216 h, 9 days of administration) [%]
COc1ccccc1Nc1cc(NC(=O)N2CCCc3cc(CN4CCOCC4=O)c(C=O)nc32)ncc1C#N [Example 8, N-(5-Cyano-4-((2-methoxyphenyl)amino)pyridin-2-yl)-7-formyl-6-((3-carbonylmorpholino)methyl)-3,4-dihydro-1,8-naphthyridin-1(2H)-carboxamide] | 2 | 4790 | 4940 | 1.16 | 3.74 | 2060 | 0.9 | 8.6 | 3.4 | > 10000 | > 10000 |  | 
COC1(CNc2cc(NC(=O)N3CCCc4cc(CN5CCCOCC5=O)c(C=O)nc43)ncc2C#N)CC1 [Example 25, N-(5-Cyano-4-(((1-methoxycyclopropyl)methyl)amino)pyridin-2-yl)-7-formyl-6-((3-carbonyl-1,4-oxazepin-4-yl)methyl)-3,4-dihydro-1,8-naphthyridin-1(2H)-carboxamide] |  |  |  |  |  |  |  |  |  |  |  | 68.4 | 
COC[C@@H](C)Oc1cc(NC(=O)N2CCCc3cc(CN4CCCOCC4=O)c(C=O)nc32)ncc1C#N [Example 28, (R)-N-(5-Cyano-4-((1-methoxypropan-2-yl)oxy)pyridin-2-yl)-7-formyl-6-((3-carbonyl-1,4-oxazepin-4-yl)methyl)-3,4-dihydro-1,8-naphthyridin-1(2H)-carboxamide] |  |  |  |  |  |  |  |  |  |  |  |  | 74.3
CO[C@H]1COCC1Nc1cc(NC(=O)N2CCCc3cc(CN4C(=O)OCC4C)c(C=O)nc32)ncc1C#N (stereo partly drawn) [Example 46, N-(5-Cyano-4-trans-(((3,4)-4-methoxytetrahydrofuran-3-yl)amino)pyridin-2-yl) -7-formyl-6-(((S)-4-methyl-2-carbonyloxazolidin-3-yl)methyl)-3,4-dihydro-1,8-naphthyridin-1(2H)-carboxamide] | 4 | 1530 | 1530 | 2.55 | 6.24 | 1930 | 12.7 | 44.4 | 2.93 | > 10000 | > 10000 |  | 
CONc1cc(NC(=O)N2CCCc3cc(CN4CCOCC4=O)c(C=O)nc32)ncc1C#N [Example 54, N-(5-Cyano-4-(methoxyamino)pyridin-2-yl)-7-formyl-6-((3-carbonylmorpholino)methyl)-3,4-dihydro-1,8-naphthyridine-1(2H)-carboxamide] | 4 | 5530 | 5690 | 0.98 | 3.86 | 1290 | 17.5 | 24.1 | 2.77 | > 10000 | > 10000 |  | 
COc1ncccc1CNc1cc(NC(=O)N2CCCc3cc(CN4CCOCC4=O)c(C=O)nc32)ncc1C#N [Example 57, N-(5-Cyano-4-(((2-methoxypyridin-3-yl)methyl)amino)pyridin-2-yl)-7-formyl-6-((3-carbonylmorpholino)methyl)-3,4-dihydro-1,8-naphthyridin-1(2H)-carboxamide] |  |  |  |  |  |  | 10.2 | 24.3 | 7.63 | > 10000 | > 10000 |  | 
CO[C@H]1CCN(c2cc(NC(=O)N3CCCc4cc(CN5CCN(C)CC5=O)c(C=O)nc43)ncc2C#N)C1 [Example 63, (S)-N-(5-Cyano-4-(3-methoxypyrrolidin-1-yl)pyridin-2-yl)-7-formyl-6-((4-methyl-2-carbonylpiperazin-1-yl)methyl)-3,4-dihydro-1,8-naphthyridin-1(2H)-carboxamide] | 2 | 4990 | 4030 | 0.91 | 2.7 | 2060 | 13.8 | 28.9 | 2.49 | > 10000 | > 10000 |  | 
CO[C@@H]1CCN(c2cc(NC(=O)N3CCCc4cc(CN5CCN(C)CC5=O)c(C=O)nc43)ncc2C#N)C1 [Example 64, (R)-N-(5-Cyano-4-(3-methoxypyrrolidin-1-yl)pyridin-2-yl)-7-formyl-6-((4-methyl-2-carbonylpiperazin-1-yl)methyl)-3,4-dihydro-1,8-naphthyridin-1(2H)-carboxamide] |  |  |  |  |  |  | 5.3 | 14.6 | 1.62 | > 10000 | > 10000 |  | 
CO[C@H]1COCC1Nc1cc(NC(=O)N2CCCc3cc(CN4CCOCC4=O)c(C=O)nc32)ncc1C#N (stereo partly drawn) [Example 66, N-(5-Cyano-4-(((trans)-4-methoxytetrahydrofuran-3-yl)amino)pyridin-2-yl)-7-formyl-6-((3-carbonylmorpholino)methyl)-3,4-dihydro-1,8-naphthyridin-1(2H)-carboxamide] | 4 | 2480 | 2540 | 1 | 3.6 | 1880 | 3.3 | 11.7 | 0.97 | > 10000 | > 10000 |  | 
CO[C@H]1COCC1Oc1cc(NC(=O)N2CCCc3cc(CN4CCOCC4=O)c(C=O)nc32)ncc1C#N (stereo partly drawn) [Example 67, N-(5-Cyano-4-(((3,4)-trans-4-methoxytetrahydrofuran-3-yl)oxy)pyridin-2-yl)-7-formyl-6-((3-carbonylmorpholino)methyl)-3,4-dihydro-1,8-naphthyridin-1(2H)-carboxamide] | 4 | 3990 | 4070 | 0.88 | 4.17 | 2840 | 16.7 | 29.5 | 2.31 | > 10000 | > 10000 |  | 
CO[C@H]1CCOCC1Nc1cc(NC(=O)N2CCCc3cc(CN4CCOCC4=O)c(C=O)nc32)ncc1C#N (stereo partly drawn) [Example 70, N-(5-Cyano-4-(((3,4)-trans-4-methoxytetrahydro-2H-pyran-3-yl)amino)pyridin-2-yl)-7-formyl-6-((3-carbonylmorpholino)methyl)-3,4-dihydro-1,8-naphthyridin-1(2H) -carboxamide] |  |  |  |  |  |  | 6.2 | 19.4 | 1.34 | > 10000 | > 10000 |  | 
